Data as given in ChEMBL document CHEMBL1641539 (Bioorg Med Chem Lett, 2011).

What was measured:
[1] = target: Macrophage-stimulating protein receptor (Homo sapiens) (UniProt Q04912); experiment: Inhibition of human Ron at 10 uM after 60 mins by TR-FRET assay; settings: values are per cent of control
[2] = target: Rhodopsin kinase GRK7 (Homo sapiens) (UniProt Q8WTQ7); experiment: Inhibition of human GRK7 at 10 uM after 60 mins by TR-FRET assay; values are per cent of control
[3] = target: Macrophage colony-stimulating factor 1 receptor (Homo sapiens) (UniProt P07333); experiment: Inhibition of human Fms at 10 uM after 60 mins by TR-FRET assay; values are per cent of control
[4] = target: Serine/threonine-protein kinase ULK2 (Homo sapiens) (UniProt Q8IYT8); experiment: Inhibition of human ULK2 at 10 uM after 60 mins by TR-FRET assay; values are per cent of control
[5] = target: Serine/threonine-protein kinase VRK2 (Homo sapiens) (UniProt Q86Y07); experiment: Inhibition of human VRK2 at 10 uM after 60 mins by TR-FRET assay; values are per cent of control
[6] = target: Serine/threonine-protein kinase TAO1 (Homo sapiens) (UniProt Q7L7X3); experiment: Inhibition of human TAO1 at 10 uM after 60 mins by TR-FRET assay; values are per cent of control
[7] = target: Serine/threonine-protein kinase 10 (Homo sapiens) (UniProt O94804); experiment: Inhibition of human LOK at 10 uM after 60 mins by TR-FRET assay; settings: values are per cent of control
[8] = target: Glycogen synthase kinase-3 alpha (Homo sapiens) (UniProt P49840); experiment: Inhibition of human GSK3alpha at 10 uM after 60 mins by TR-FRET assay; values are per cent of control
[9] = target: Maternal embryonic leucine zipper kinase (Homo sapiens) (UniProt Q14680); experiment: Inhibition of human MELK at 10 uM after 60 mins by TR-FRET assay; values are per cent of control
[10] = target: Inhibitor of nuclear factor kappa-B kinase subunit beta (Homo sapiens) (UniProt O14920); experiment: Inhibition of human IKK-beta at 10 uM after 60 mins by TR-FRET assay; values are per cent of control
[11] = target: Mitogen-activated protein kinase 14 (Homo sapiens, UniProt Q16539); experiment: Inhibition of human SAPK2a at 10 uM after 60 mins by TR-FRET assay; settings: values are per cent of control
[12] = target: Mitogen-activated protein kinase 11 (Homo sapiens) (UniProt Q15759); experiment: Inhibition of human SAPK2b at 10 uM after 60 mins by TR-FRET assay; settings: values are per cent of control
[13] = target: Serine/threonine-protein kinase NLK (Homo sapiens) (UniProt Q9UBE8); experiment: Inhibition of human NLK at 10 uM after 60 mins by TR-FRET assay; values are per cent of control
[14] = target: Serine/threonine-protein kinase MARK1 (Homo sapiens) (UniProt Q9P0L2); experiment: Inhibition of human MARK1 at 10 uM after 60 mins by TR-FRET assay; values are per cent of control
[15] = target: cGMP-dependent protein kinase 1 (Homo sapiens) (UniProt Q13976); experiment: Inhibition of human PKG1beta at 10 uM after 60 mins by TR-FRET assay; values are per cent of control
[16] = target: Protein kinase C eta type (Homo sapiens) (UniProt P24723); experiment: Inhibition of human PKCeta at 10 uM after 60 mins by TR-FRET assay; values are per cent of control
[17] = target: Insulin-like growth factor 1 receptor (Homo sapiens) (UniProt P08069); experiment: Inhibition of human IGF-1R at 10 uM after 60 mins by TR-FRET assay; values are per cent of control
[18] = target: Tyrosine-protein kinase BTK (Homo sapiens) (UniProt Q06187); experiment: Inhibition of human BTK at 10 uM after 60 mins by TR-FRET assay; values are per cent of control
[19] = target: Myosin light chain kinase, smooth muscle (Homo sapiens) (UniProt Q15746); experiment: Inhibition of human MLCK at 10 uM after 60 mins by TR-FRET assay; values are per cent of control
[20] = target: Dual specificity mitogen-activated protein kinase kinase 6 (Homo sapiens) (UniProt P52564); experiment: Inhibition of human MKK6 at 10 uM after 60 mins by TR-FRET assay; values are per cent of control
[21] = tested on: Epidermal growth factor receptor (Homo sapiens), P00533 [L858R]; experiment: Inhibition of human EGFR L858R mutant at 10 uM after 60 mins by TR-FRET assay; type: protein assay; settings: values are per cent of control
[22] = target: Cyclin-dependent kinase 7/ cyclin H (Homo sapiens) (UniProt P51946+P50613); experiment: Inhibition of human CDK7/cyclinH/MAT1 at 10 uM after 60 mins by TR-FRET assay; values are per cent of control
[23] = target: Serine/threonine-protein kinase MRCK alpha (Homo sapiens) (UniProt Q5VT25); experiment: Inhibition of human MRCKalpha at 10 uM after 60 mins by TR-FRET assay; values are per cent of control
[24] = target: Cyclin-dependent kinase 1/cyclin B (Homo sapiens) (UniProt P06493+P14635+Q8WWL7+O95067); experiment: Residual activity of human CDK1/cyclinB at 10 uM after 60 mins by TR-FRET assay
[25] = tested on: Epidermal growth factor receptor (Homo sapiens), P00533 [L861Q]; experiment: Inhibition of human EGFR L861Q mutant at 10 uM after 60 mins by TR-FRET assay; type: protein assay; settings: values are per cent of control
[26] = target: Serine/threonine-protein kinase Nek6 (Homo sapiens) (UniProt Q9HC98); experiment: Inhibition of human NEK6 at 10 uM after 60 mins by TR-FRET assay; values are per cent of control
[27] = target: Serine/threonine-protein kinase STK11 (Homo sapiens) (UniProt Q15831); experiment: Inhibition of human LKB1 at 10 uM after 60 mins by TR-FRET assay; values are per cent of control
[28] = target: RAC-alpha serine/threonine-protein kinase (Homo sapiens) (UniProt P31749); experiment: Inhibition of human PKBalpha at 10 uM after 60 mins by TR-FRET assay; values are per cent of control

Sequence of Myosin light chain kinase, smooth muscle (Homo sapiens) (Q15746 whole entry): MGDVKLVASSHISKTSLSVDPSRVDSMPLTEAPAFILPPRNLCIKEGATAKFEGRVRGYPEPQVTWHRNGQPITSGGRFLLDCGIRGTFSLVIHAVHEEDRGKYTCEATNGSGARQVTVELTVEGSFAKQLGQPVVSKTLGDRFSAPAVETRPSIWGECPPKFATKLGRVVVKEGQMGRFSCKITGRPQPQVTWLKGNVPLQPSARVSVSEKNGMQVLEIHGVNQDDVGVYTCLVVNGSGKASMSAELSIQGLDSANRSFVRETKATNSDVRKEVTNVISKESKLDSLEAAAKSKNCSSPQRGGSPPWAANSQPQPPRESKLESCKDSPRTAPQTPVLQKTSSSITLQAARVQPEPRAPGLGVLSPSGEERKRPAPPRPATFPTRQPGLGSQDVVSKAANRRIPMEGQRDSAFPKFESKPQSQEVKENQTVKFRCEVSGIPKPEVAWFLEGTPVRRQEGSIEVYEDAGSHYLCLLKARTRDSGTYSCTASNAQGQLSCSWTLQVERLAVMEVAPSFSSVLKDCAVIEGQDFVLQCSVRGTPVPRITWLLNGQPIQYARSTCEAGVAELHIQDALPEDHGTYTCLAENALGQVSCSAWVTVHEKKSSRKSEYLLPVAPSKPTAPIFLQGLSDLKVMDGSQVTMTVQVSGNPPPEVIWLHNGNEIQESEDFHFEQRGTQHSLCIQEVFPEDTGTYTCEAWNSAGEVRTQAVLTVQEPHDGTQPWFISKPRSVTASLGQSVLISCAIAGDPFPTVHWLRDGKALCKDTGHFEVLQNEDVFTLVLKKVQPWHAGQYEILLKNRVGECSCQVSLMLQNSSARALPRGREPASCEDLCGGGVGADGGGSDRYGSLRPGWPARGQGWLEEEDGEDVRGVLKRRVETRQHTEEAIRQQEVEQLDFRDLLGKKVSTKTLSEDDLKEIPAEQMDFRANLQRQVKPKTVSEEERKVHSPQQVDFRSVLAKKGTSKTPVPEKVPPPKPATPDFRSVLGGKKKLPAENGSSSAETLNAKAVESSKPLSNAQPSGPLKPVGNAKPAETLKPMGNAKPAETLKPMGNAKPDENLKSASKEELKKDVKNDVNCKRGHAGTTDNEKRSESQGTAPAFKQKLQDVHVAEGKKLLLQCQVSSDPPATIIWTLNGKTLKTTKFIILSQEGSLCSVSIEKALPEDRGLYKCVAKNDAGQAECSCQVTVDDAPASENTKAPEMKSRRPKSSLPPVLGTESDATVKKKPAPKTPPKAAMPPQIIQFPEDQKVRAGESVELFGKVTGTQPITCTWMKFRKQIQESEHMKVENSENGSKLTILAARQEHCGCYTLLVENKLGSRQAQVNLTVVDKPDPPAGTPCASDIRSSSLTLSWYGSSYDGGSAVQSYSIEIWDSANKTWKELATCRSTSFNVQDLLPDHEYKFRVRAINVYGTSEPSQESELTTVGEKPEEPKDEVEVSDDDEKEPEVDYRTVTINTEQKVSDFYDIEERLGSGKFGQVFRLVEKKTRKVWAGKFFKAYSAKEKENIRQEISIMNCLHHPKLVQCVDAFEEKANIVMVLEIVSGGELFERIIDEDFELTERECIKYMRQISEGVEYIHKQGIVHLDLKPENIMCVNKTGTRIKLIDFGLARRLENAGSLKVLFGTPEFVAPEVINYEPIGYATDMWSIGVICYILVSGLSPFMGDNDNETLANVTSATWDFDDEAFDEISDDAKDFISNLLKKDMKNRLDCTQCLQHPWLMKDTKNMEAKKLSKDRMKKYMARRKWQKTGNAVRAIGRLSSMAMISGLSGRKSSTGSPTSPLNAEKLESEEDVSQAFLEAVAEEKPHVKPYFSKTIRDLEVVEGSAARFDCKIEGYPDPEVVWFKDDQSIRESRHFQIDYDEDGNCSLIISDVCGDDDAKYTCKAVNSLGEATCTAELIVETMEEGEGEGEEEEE
Sequence of Serine/threonine-protein kinase ULK2 (Homo sapiens) (Q8IYT8 whole entry): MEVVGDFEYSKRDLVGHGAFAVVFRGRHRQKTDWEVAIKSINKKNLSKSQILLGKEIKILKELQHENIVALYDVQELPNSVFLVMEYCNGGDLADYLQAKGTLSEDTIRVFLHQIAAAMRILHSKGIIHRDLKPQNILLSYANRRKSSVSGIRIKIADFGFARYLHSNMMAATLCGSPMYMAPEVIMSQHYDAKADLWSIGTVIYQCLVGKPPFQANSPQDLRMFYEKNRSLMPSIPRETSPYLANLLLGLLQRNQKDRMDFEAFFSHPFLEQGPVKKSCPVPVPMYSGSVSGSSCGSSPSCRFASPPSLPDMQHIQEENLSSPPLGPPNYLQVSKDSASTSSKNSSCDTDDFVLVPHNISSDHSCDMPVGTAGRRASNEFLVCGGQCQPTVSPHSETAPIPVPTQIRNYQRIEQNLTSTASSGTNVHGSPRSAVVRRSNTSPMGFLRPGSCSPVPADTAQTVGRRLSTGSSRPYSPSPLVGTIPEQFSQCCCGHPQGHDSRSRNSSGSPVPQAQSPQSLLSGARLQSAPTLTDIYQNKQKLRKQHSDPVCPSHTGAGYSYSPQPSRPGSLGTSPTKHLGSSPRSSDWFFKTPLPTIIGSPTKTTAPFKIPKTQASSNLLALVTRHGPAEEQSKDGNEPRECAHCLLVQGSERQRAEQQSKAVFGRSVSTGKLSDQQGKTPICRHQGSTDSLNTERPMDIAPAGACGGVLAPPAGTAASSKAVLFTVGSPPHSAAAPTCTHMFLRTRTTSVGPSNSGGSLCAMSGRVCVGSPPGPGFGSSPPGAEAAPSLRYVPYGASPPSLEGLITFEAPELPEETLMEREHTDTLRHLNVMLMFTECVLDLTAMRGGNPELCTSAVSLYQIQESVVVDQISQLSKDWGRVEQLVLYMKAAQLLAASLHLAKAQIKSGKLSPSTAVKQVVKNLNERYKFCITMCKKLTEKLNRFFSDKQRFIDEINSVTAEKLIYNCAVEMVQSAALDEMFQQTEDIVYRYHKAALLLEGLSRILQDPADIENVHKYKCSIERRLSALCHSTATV
Sequence of Tyrosine-protein kinase BTK (Homo sapiens) (Q06187 whole entry): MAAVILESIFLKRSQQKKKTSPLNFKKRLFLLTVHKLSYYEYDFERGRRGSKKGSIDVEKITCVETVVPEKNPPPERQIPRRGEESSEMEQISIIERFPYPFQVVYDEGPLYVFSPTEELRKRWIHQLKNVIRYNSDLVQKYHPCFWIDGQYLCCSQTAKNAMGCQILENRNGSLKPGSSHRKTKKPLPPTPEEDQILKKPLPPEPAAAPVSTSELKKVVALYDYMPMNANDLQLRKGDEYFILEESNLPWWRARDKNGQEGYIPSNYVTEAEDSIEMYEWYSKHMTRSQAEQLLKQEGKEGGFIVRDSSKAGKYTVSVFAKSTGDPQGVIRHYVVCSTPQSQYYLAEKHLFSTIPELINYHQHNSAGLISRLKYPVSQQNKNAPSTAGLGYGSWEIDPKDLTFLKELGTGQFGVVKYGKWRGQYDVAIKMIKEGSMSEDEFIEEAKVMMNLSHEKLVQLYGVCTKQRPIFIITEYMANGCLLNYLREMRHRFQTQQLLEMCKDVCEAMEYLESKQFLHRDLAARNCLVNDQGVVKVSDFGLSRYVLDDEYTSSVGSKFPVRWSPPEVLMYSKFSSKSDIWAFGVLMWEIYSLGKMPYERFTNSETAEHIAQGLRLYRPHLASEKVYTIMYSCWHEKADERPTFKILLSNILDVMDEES
Sequence of Serine/threonine-protein kinase 10 (Homo sapiens) (O94804 whole entry, looked up): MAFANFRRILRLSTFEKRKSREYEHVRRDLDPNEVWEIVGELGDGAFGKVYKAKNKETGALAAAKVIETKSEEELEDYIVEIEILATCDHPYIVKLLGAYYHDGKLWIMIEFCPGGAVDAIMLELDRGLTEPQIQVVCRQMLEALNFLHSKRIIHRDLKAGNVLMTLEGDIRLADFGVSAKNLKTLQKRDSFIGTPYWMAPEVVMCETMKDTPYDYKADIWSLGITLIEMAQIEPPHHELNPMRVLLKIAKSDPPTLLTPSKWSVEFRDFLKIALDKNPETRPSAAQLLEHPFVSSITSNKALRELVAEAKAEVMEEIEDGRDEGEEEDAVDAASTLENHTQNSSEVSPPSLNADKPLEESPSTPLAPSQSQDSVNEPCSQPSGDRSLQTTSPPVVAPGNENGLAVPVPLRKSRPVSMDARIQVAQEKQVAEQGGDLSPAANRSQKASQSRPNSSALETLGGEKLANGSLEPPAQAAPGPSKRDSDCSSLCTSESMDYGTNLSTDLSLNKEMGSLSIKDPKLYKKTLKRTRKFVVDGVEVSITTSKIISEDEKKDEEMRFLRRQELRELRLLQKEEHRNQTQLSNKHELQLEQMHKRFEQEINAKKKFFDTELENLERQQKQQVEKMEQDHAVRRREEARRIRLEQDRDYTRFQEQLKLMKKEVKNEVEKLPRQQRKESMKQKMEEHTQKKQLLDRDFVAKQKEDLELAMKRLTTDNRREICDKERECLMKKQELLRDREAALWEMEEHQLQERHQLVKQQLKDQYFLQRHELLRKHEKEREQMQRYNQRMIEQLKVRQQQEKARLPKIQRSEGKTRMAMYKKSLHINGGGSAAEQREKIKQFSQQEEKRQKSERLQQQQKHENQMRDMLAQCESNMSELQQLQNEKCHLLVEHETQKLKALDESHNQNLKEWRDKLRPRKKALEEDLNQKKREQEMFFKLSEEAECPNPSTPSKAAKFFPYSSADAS
Sequence of Rhodopsin kinase GRK7 (Homo sapiens) (Q8WTQ7 whole entry): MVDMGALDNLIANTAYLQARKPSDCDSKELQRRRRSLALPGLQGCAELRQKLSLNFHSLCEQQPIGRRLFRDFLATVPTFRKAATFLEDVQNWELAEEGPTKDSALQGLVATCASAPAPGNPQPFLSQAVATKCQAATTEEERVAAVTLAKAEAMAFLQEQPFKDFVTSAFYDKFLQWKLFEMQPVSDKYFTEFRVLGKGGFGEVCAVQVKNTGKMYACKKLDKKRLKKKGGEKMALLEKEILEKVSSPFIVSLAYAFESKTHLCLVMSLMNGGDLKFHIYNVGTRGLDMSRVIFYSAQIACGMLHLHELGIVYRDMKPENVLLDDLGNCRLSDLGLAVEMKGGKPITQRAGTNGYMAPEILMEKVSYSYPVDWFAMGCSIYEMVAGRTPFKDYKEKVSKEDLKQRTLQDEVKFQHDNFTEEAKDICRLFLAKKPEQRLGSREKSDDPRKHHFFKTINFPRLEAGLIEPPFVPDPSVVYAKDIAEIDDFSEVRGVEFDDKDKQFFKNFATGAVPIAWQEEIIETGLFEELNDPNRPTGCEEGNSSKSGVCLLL

Q: How did the residual activity [1] turn out when S=c1[nH]nc(-c2ccncc2)n1-c1ccc2ccccc2c1 was run?
A: 110%

Q: What about the residual activity [2] of the same compound?
A: 124%

Q: And the residual activity [3]?
A: 96%

Q: What about the residual activity [4] of the same compound?
A: 103%

Q: What about the residual activity [5] of the same compound?
A: 122%

Q: And the residual activity [6]?
A: 104%

Q: What about the residual activity [7] of the same compound?
A: 89%

Q: What about the residual activity [8] of the same compound?
A: 85%

Q: What about the residual activity [9] of the same compound?
A: 105%

Q: And the residual activity [10]?
A: 94%

Q: What about the residual activity [11] of the same compound?
A: 71%

Q: And the residual activity [12]?
A: 90%

Q: What about the residual activity [13] of the same compound?
A: 114%

Q: What about the residual activity [14] of the same compound?
A: 113%

Q: What about the residual activity [15] of the same compound?
A: 109%

Q: And the residual activity [16]?
A: 107%

Q: And the residual activity [17]?
A: 115%

Q: What about the residual activity [18] of the same compound?
A: 118%

Q: What about the residual activity [19] of the same compound?
A: 103%

Q: What about the residual activity [20] of the same compound?
A: 85%

Q: And the residual activity [21]?
A: 75%

Q: What about the residual activity [22] of the same compound?
A: 113%

Q: And the residual activity [23]?
A: 105%

Q: What about the residual activity [24] of the same compound?
A: 101%

Q: And the residual activity [25]?
A: 64%

Q: What about the residual activity [26] of the same compound?
A: 116%

Q: What about the residual activity [27] of the same compound?
A: 123%

Q: What about the residual activity [28] of the same compound?
A: 99%
